The source of these data is US12435091B2, “RNA-binding protein multimerization inhibitors and methods of use thereof” (THE UAB RESEARCH FOUNDATION, priority 2020, dated 2025).

Like-named read-outs stand apart in the source and are kept apart here. A value given as a limit tells only on which side of the number the result lay.

One data set concerns the target AAK1 (Homo sapiens, UniProt Q2M2I8). In words: SelectScreen kinase profiling, LanthaScreen Binding. Here is the method:
(§1) The kinase inhibitory potentials of compounds as described herein (e.g., SRI-42127 and SRI-41664) were evaluated by ThermoFisher Scientific's SelectScreen™ Kinase Profiling Service. The following kinase inhibitory assays were utilized: ZLYTE (Madison, WI) for NTRK1, PIM1, and cMET kinases; LanthaScreen Binding (Madison, WI) for AAK1 kinase; and Adapta (Madison, WI) for IRAK1 kinase.

The next data set addresses IRAK1 (Homo sapiens, UniProt P51617). In words: SelectScreen kinase profiling, Adapta. The class given is biochemical. The procedure: as §1
A further data set deals with T1, HuR (Homo sapiens, UniProt Q15717).
T1 construct: expressed in transfected cells; host or cells: U251 glioma cells, doxycycline-inducible constructs
Description: cell-based split firefly luciferase-HuR dimerization assay. The essentials: (§2)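 U251 cells carrying HuR fused to N- or C-terminal split firefly luciferase halves (dimer reporter) or full-length Fluc (control); constructs induced with doxycycline 0.75 ug/ml for 48 h. Compounds at various concentrations vs vehicle for 6 h. Luciferin-driven luminescence read; mean+SD.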

The subject of data set [1] is U251 cells expressing Fluc construct. Description: control Fluc (full length luciferase) reporter assay in U251 cells. The class given is cell-based. The essentials:
as §2

A short description of another data set: in vitro. To be noted: human, liver microsomes.
For data set [2], the system named is secreted proteins of astrocytes. Description: ELISA of secreted proteins in culture media of LPS-stimulated astrocytes. The class given is cell-based. Here is the method: Next, the impact of SRI-42127 on induction of inflammatory cytokine mRNAs as depicted in FIG. 15, Panel B was assessed. A significant 3-4-fold suppression of mRNA for IL-1β, IL-6, CXCL1, and CCL2 was observed. […] All chemokines were likewise suppressed, including KC, CCL2, CCL3, CCL4, CXCL10, from 2.5 to 8.1-fold.

Data set [3] can be described thus: Mouse liver microsomal stability in vitro. Format: in vitro ADME. To be noted: liver microsomes, read-out: MLM t1/2.
Description: Selected compounds were assessed for their aqueous solubility, Log D and mouse and human liver microsomal stability.
The test system of data set [4] is PDGx neurosphere cell lines (JX12p, X14P, XD456, X1524, and JX22p). Description: RNA-Seq analysis and gene ontology enrichment across all PDGx neurosphere cell lines. To be noted: 3 uM for 12 hours, in four of five neurosphere cell lines. The class given is cell-based. The procedure:
Illumina global RNA-sequencing data were generated by utilizing PDGx neurospheres, which have been treated with a compound as described herein (e.g., SRI-42127, 3 uM) for 12 hours or with vehicle as the control. RNA was isolated by using TRIzol reagent (Invitrogen; Carlsbad, CA). The RNA samples were processed.
The RNA-Sequencing data was generated using glioma neurospheres representing the different molecular subtypes (classical, neuronal, and mesenchymal) in the control (treatment with vehicle) and after treatment with SRI-42127, 3 uM for 12 hours. First, analysis of direct HuR mRNA targets and their corresponding cell signaling pathways was performed by using gene sets, which have been defined as the direct HuR targets following tumor neurosphere treatment with DHTS compound, an established modulator of the HuR/mRNA interaction.
Significant down-regulation of the pathways responsible for i) cell cycle progression, ii) DNA replication, iii) transport mature transcript to cytoplasm, iv) DNA strand elongation, v) capped intron-containing pre-mRNA processing, vi) DNA repair, vii) unwinding of DNA, viii) alpha-linolenic (omega 3) and linoleic (omega 6) metabolism, ix) chromosome maintenance, x) messenger RNA splicing was observed. It is established that HuR can control the centrosome and microtubule organizing center in cancer cells. […]

Another data set concerns the target TRKA (NTRK1) (Homo sapiens, UniProt P04629). In words: SelectScreen kinase profiling, ZLYTE. The class given is biochemical. Here is the method: as §1
Another data set addresses cMET (Homo sapiens, UniProt P08581). In words: SelectScreen kinase profiling, ZLYTE. The class given is biochemical. Here is the method: as §1
A further data set deals with PIM1 (Homo sapiens, UniProt P11309). Description: SelectScreen kinase profiling, ZLYTE. Format: biochemical. Here is the method: as §1
Chain of PIM1 (P11309 whole entry): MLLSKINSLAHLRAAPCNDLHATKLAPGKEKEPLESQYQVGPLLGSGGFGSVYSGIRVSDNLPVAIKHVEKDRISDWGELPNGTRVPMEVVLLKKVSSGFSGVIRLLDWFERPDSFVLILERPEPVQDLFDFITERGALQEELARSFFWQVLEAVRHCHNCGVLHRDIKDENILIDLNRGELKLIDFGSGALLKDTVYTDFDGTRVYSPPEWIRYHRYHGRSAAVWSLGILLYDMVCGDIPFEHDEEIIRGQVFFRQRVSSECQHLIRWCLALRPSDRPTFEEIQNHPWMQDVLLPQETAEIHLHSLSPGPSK

T1 sequence (Q15717 whole entry): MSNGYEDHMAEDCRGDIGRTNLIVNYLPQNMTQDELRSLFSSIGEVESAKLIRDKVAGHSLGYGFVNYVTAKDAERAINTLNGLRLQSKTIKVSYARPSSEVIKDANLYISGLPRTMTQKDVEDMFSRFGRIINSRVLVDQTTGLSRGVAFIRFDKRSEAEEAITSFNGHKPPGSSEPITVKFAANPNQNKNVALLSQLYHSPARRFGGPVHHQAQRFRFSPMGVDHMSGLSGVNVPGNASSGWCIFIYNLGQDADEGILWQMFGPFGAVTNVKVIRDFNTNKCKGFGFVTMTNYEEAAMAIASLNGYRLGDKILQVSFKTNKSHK
Chain of TRKA (NTRK1) (P04629 33-796): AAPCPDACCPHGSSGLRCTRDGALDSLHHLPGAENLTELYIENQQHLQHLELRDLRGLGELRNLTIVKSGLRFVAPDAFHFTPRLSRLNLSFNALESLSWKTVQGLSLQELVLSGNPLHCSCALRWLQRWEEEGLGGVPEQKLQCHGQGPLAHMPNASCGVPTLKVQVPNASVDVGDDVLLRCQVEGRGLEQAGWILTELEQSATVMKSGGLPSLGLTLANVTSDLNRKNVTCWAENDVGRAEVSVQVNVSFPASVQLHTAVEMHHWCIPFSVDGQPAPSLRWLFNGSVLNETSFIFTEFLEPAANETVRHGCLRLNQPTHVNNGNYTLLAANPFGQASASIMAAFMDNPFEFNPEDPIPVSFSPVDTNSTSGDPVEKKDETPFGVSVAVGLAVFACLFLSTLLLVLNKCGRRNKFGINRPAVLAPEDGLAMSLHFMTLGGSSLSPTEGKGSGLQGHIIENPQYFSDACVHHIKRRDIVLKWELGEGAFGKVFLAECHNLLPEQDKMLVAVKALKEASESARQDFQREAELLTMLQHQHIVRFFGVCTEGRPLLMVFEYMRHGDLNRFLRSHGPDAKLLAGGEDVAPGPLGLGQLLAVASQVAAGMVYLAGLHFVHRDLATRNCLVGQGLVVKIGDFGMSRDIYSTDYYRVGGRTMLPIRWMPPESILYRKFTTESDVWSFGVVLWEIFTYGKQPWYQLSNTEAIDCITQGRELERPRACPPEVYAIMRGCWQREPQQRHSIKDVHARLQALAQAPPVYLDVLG
Chain of IRAK1 (P51617 whole entry): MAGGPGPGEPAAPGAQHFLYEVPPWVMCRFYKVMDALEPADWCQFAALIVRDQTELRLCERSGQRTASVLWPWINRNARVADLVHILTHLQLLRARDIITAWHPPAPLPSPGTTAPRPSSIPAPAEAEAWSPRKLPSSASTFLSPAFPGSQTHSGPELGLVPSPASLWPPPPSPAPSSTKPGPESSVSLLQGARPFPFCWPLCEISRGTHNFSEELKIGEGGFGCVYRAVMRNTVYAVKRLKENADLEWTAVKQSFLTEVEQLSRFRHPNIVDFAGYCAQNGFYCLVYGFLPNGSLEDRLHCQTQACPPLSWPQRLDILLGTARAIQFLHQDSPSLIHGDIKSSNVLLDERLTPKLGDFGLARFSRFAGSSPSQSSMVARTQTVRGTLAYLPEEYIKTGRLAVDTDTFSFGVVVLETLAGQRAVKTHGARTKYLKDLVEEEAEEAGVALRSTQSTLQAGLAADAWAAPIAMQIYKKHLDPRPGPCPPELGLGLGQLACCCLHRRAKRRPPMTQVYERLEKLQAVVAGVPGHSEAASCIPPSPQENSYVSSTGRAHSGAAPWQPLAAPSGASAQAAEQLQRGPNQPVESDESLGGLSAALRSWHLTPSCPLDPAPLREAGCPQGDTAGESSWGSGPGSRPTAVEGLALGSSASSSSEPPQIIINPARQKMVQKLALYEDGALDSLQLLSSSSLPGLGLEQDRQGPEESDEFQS
Chain of AAK1 (Q2M2I8 whole entry): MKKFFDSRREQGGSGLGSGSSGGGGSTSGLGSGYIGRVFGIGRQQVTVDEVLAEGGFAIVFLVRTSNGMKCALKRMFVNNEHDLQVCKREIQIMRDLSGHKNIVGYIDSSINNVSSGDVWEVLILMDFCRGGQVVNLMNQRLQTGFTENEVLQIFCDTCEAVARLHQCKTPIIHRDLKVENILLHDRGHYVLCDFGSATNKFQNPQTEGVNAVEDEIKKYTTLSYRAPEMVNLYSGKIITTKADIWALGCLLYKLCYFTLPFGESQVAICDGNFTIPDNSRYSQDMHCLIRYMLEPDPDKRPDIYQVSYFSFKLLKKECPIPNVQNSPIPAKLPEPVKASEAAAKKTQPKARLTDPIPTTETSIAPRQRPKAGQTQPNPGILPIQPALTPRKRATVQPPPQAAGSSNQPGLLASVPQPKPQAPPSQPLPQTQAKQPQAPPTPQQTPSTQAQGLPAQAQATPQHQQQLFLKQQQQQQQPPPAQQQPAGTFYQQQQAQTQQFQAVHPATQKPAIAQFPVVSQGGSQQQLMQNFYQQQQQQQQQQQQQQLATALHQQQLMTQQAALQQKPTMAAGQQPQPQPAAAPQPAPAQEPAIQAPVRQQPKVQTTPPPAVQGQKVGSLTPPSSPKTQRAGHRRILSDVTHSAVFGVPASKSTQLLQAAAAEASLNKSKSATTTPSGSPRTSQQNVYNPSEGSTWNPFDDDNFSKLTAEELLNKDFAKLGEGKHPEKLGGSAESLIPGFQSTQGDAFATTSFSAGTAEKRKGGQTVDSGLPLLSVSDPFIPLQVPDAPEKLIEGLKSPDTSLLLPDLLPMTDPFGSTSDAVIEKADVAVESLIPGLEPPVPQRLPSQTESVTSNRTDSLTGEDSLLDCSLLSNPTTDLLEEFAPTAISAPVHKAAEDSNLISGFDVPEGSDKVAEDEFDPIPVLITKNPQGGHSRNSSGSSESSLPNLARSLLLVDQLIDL
Chain of cMET (P08581 25-1390): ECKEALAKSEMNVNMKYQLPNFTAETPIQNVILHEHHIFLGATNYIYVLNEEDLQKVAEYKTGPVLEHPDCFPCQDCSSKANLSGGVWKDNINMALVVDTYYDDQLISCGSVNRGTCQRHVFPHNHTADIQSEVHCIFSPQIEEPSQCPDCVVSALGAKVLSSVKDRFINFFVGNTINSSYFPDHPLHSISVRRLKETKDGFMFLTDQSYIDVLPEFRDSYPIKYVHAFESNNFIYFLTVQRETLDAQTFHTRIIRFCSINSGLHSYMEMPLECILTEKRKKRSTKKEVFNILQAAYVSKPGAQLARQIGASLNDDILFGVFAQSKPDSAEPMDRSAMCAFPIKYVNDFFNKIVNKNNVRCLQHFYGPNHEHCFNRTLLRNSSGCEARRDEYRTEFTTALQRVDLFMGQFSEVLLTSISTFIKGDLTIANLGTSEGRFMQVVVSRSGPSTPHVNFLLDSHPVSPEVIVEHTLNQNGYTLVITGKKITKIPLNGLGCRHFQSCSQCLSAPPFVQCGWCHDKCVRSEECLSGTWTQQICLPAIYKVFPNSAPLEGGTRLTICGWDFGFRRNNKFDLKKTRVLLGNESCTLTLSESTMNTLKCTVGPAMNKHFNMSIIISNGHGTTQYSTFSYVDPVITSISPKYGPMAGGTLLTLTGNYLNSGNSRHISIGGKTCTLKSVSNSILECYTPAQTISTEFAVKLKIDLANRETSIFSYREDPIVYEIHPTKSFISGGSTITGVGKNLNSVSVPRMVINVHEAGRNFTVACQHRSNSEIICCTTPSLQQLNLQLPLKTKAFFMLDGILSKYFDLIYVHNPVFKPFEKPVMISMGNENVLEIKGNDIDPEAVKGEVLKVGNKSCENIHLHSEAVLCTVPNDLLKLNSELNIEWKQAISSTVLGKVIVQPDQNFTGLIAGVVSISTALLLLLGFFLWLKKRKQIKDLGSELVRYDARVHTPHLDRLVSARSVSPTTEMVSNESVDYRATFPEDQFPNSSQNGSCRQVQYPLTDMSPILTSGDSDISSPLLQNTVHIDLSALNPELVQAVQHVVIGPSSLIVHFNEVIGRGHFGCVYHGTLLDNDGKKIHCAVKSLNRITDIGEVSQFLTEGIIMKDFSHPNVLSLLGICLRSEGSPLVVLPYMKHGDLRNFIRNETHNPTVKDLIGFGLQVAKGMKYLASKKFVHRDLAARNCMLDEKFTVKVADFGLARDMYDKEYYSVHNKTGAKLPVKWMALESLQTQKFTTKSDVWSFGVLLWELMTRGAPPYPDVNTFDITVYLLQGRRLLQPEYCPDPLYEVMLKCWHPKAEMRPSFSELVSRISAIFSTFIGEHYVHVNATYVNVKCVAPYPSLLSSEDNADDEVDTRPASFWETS

As to `CN(c1ccc2ncc(-c3ccc4cn[nH]c4c3)n2n1)C1CCOCC1` [Compound 19], the IC50 on AAK1 was found to be 120 nM; against IRAK1 it was 319 nM; on HuR (U251 cells co-expressing HuR-Nluc and HuR-Cluc, 6 hours of treatment, read-out: HuR IC50), 1200 ± 200 nM; on HuR (U251 with dox-inducible HuR-dimerization reporters, after increase in HuR dimerization by two fold, 6 hours, read-out: IC50 for inhibition of HuR dimerization) it was 1900 ± 100 nM; on HuR (U251 with dox-inducible HuR-dimerization reporters, before increase in HuR dimerization, 6 hours, read-out: IC50 for inhibition of HuR dimerization), 1200 ± 100 nM; on HuR (split luciferase HuR dimerization assay, compounds administered for 6 hours, read-out: HuR IC50) it was 1500 nM. The IC50 against TRKA (NTRK1) is 117 nM; at cMET it was over 10000 nM; against PIM1 it was 668 nM. The “HuR inhibition activity (in words)” value on HuR was “active”. On HuR (Concn 50 uM), the “HuR N/C Imax % Inh” value turned out to be 90%. Moreover, the “maximum inhibition of HuR dimerization” value at HuR (after 6 hours of cell treatment) is listed as 90±1%. Further, the “decrease of luminescence signal from cells overexpressing the control Fluc construct” value in data set [1] (6 hours, represents the cytotoxic effect) was found to be 26±9%. The inhibition at 50 µM in data set [1] (Homo sapiens, U-251, 6 h, Concn 50 uM, read-out: Fluc Imax % Inh) was 26%. The figures for the half-life (in “in vitro”; in [3]) were 8.6 min and 3.3 min, respectively. For the same compound, the “suppression of secreted chemokines KC, CCL2, CCL3, CCL4, CXCL10” value in [2] was in the range of 2.5 to 8.1 fold. Also, in [2] (1.0 μM), the “suppression of secreted IL-6” value turned out to be 8.8 fold. Besides, the “suppression of secreted TNF-α” value in data set [2] (1.0 μM) worked out at 5.7 fold. Moreover, in data set [4], the “up-regulation of Tubb2A transcript” value is “more than 2 folds”.
